Assay in all cases: In vitro susceptibility (broth microdilution MIC, MBC by spiral-plating)
A general note: Dilution methods test growth across graded concentrations, often in twofold steps.

Test [1] has as its system Actinomyces naeslundii T14V-J1. The format is cell-based. To be noted: 24-48 h. From the text: (§1) Strains used in Examples 3-6 included ATCC and laboratory strains of different oral bacteria. These included: Actinomyces naeslundii strain T14V-J1, Actinomyces israelii ATCC 10049, Streptococcus mutans strains LT 11 and ATCC 25175, Streptococcus sobrinus ATCC 33478, Streptococcus gordonii strains DL1 and ATCC 51656, Streptococcus sanguis strains SK36 and ATCC 10556, Streptococcus salivarius ATCC 9222, Streptococcus oralis strains 34 and ATCC 35037, Lactobacillus salivarius ATCC 29602, Lactobacillus acidophilus ATCC 4357, and Actinobacillus actinomycetemcomitans ATCC 43718. S. mutans strain LT 11 was kindly provided by Lin Tao, University of Illinois at Chicago, Ill. S. gordonii DLI, S. sanguis SK36, and S. oralis 34 were provided by John Cisar, National Institute of Dental and Craniofacial Research, NIH, Bethesda, Md.
(§2) Todd-Hewitt broth (THB), brain heart infusion (BHI) broth, Todd-Hewitt agar (THA), trypticase soy agar (TSA), lactobacilli MRS (MRS) broth, Actinomyces broth and Mueller-Hinton broth (MHB) were purchased from Becton Dickinson. Blood agar plates (BAP) were prepared by supplementing TSA with 5% sheep blood (PML Microbiologicals). All cultures, except for Actinobacillus actinomycetemcomitans, S. mitis and Actinomyces israelii, were grown at 37° C. in room air. Actinobacillus actinomycetemcomitans cultures were grown on BAP or in MHB supplemented with 15 μg haemin ml^−1 (Sigma), 15 μg β-nicotinamide adenine dinucleotide (NAD) ml^−1 (Sigma) and 5% yeast extract (Becton Dickinson) at 37° C. in 5% CO2. S. mitis was grown on BAP or in BHI broth at 37° C. in 5% CO2. Actinomyces israeilli was grown anaerobically in an anaerobic chamber (Coy Laboratory Products) in a 5% CO2/10% H2/85% N2 atmosphere.
(§3) MICs were determined as described by Fuchs et al. (1998) with a slight modification. Procedures were based on the National Committee for Clinical Laboratory Standards broth microdilution method. MHB was used as the main assay medium for most of the tested organisms. Freshly grown cultures at exponential phase were used as the inoculum. Bacteria were centrifuged at 4000 r.p.m. for 15 min at 4° C., suspended in 2× concentrated medium and adjusted to 4×106 c.f.u ml−1 in 2× concentrated medium. Aqueous peptide solution (100 μl) was added to each well of a 96-well, flat-bottomed plate (Becton Dickinson). The peptide solution was serially diluted (twofold) with sterile distilled water in the wells, with final peptide concentrations ranging from 3.13 to 200 μg ml−1. After dispensing 100 μl aliquots of bacterial suspension into the wells, the 96-well plates were incubated at 37° C. for 24-48 h in room air, CO2 or anaerobically. The MIC was defined as the lowest concentration of the peptide that prevented visible turbidity, as measured at 600 nm by using an ELISA reader (Titertek Multiskan MCC/340). […] Minimum bactericidal concentrations (MBCs) were determined by spiral-plating (Spiral Plater Autoplate 4000; Spiral Biotech) 50 μl from each clear well (≧MIC) onto BAP.

In test [2] the test system is Actinomyces israelii ATCC 10049. The format is cell-based. Particulars: 24-48 h.
Description: as §1, §2, §3

The next test relates to S. mitis ATCC. It counts as cell-based. To be noted: 24-48 h.
Description: as §1, §2, §3

Test [3] deals with Actinobacillus actinomycetemcomitans ATCC 43718. It counts as cell-based. Particulars: 4 × 10^7 cells ml^−1, 24-48 h.
Description: as §1, with “Md. […]” for “Md.”
(§4) MICs were determined as described by Fuchs et al. (1998) with a slight modification. […] The MIC was defined as the lowest concentration of the peptide that prevented visible turbidity, as measured at 600 nm by using an ELISA reader (Titertek Multiskan MCC/340). […] Minimum bactericidal concentrations (MBCs) were determined by spiral-plating (Spiral Plater Autoplate 4000; Spiral Biotech) 50 μl from each clear well (≧MIC) onto BAP.

The subject of a further test is S. oralis ATCC 35037. It counts as cell-based, Streptococcus oralis. Particulars: 24-48 h.
Description: as §1, with “Md. […]” for “Md.”
as §4

Ends that are not written are not given here.

Broadly, the MIC is the smallest concentration in the dilution series that meets the test's criterion for growth inhibition. A higher MIC goes with a less susceptible organism. A word on the MBC: it is the smallest concentration meeting the test's criterion for killing. A low value points to more potent killing. As for “KKVVFKVKFK-NH2 [KSL, lys-lys-val-val-phe-lys-val-lys-phe-lys]”, the MIC in test [1] (MHB or modified broth, 4 × 10^6 cells ml^−1, 37° C.) came to 3.13 µg/mL; in test [2] (20% Actinomyces broth, anaerobic, 4 × 10^6 cells ml^−1, 37° C.) it was 6.25 µg/mL; in the test on S. mitis ATCC (BHI, 5% CO2, 4 × 10^6 cells ml^−1, 37° C.), 25 µg/mL; in test [3] (50% BHI, 5% CO2, 37° C.), 100 µg/mL; with S. oralis ATCC 35037 (MHB, 4 × 10^6 cells ml^−1, 37° C.), 100 µg/mL. The MBC in test [1] (clear MIC wells plated on BAP) is 12.5 µg/mL; in test [2] (clear MIC wells plated on BAP), 12.5 µg/mL; in the test on S. mitis ATCC (clear MIC wells plated on BAP), 50 µg/mL; in test [3] (clear MIC wells plated on BAP), 200 µg/mL; against S. oralis ATCC 35037 (clear MIC wells plated on BAP), 200 µg/mL.

(Values after patent publication US7494980B2, “Antimicrobial peptide and methods of use thereof” (The United States of America as represented by the …, priority 2003, dated 2009).)
